Broadly, the IC50 is the midpoint of a concentration-inhibition curve. Higher therefore signals weaker potency. By Ki is commonly meant a dissociation constant, usually derived from enzyme kinetics or from competition with a known ligand. Lower therefore signals a stronger hold on the target. What is called Km is the concentration of substrate that gives half-maximal velocity.

The source of these data is ChEMBL document CHEMBL1124008, “Synthesis and antifolate activity of 5-methyl-5,10-dideaza analogues of aminopterin and folic acid and an alternative synthesis of 5,10-dideazatetrahydrofolic acid, a potent inhibitor of glycinamide ribonucleotide formyltransferase” (J Med Chem, 1988).

The target in experiment [1] is Dihydrofolate reductase (Lactobacillus casei, UniProt P00381). In words: Evaluated for inhibition of dihydrofolate reductase (DHFR) from Lactobacillus casei. Also noted: species or system Lacticaseibacillus casei.
The target in experiment [2] is T1, Dihydrofolate reductase (Mus musculus, UniProt P00375).
T1 sequence (P00375 whole entry): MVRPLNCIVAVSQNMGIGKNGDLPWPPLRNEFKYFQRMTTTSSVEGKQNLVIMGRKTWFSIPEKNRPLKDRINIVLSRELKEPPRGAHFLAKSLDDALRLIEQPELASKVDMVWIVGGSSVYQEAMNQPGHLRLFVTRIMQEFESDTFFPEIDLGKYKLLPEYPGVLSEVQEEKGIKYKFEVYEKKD
In words: Evaluated for inhibition of dihydrofolate reductase (DHFR) isolated from L1210 cells. The experiment is classed as cell-based.

The next experiment deals with T2, Thymidylate synthase (Lactobacillus casei, UniProt P00469).
T2 sequence (P00469 whole entry): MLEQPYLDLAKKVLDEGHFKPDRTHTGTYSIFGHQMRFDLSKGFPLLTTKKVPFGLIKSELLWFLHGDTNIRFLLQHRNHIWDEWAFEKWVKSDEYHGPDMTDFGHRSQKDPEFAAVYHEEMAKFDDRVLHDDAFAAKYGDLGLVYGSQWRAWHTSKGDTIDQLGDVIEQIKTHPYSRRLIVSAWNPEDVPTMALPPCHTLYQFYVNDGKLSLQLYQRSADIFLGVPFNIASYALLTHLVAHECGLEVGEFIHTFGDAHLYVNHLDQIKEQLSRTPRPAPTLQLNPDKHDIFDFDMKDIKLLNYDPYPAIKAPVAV
In words: Evaluated for inhibition of thymidylate synthase (TS) from Lactobacillus casei. Also noted: species or system Lacticaseibacillus casei.

Experiment [3] has as its target T3, Trifunctional purine biosynthetic protein adenosine-3 (Mus musculus, UniProt Q64737).
T3 sequence (Q64737 whole entry): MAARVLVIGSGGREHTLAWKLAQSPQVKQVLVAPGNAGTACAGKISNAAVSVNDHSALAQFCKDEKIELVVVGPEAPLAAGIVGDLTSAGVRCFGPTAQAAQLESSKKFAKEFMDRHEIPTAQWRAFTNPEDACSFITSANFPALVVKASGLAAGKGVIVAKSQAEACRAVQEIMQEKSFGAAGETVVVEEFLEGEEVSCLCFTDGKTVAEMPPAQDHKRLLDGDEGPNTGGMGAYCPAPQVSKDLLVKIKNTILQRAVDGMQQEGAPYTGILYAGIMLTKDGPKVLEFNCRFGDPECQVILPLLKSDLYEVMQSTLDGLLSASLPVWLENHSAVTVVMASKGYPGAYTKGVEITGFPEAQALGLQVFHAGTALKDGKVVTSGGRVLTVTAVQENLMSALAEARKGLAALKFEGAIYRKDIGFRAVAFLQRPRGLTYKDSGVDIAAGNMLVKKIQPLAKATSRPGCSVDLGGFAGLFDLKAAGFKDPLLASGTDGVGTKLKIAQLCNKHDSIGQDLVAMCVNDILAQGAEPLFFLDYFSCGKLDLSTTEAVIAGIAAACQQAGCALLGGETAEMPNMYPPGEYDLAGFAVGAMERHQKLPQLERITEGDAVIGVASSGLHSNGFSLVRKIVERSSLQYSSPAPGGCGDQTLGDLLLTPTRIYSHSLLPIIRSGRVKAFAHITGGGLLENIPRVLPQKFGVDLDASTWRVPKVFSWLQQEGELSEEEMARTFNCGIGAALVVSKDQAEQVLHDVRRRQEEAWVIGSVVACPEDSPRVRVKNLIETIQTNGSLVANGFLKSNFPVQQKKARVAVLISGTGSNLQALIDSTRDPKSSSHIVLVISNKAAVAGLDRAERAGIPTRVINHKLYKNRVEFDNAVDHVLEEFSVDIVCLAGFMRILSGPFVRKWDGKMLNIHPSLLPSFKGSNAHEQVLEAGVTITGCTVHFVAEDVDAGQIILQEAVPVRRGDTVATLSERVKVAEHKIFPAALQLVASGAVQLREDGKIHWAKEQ
The experiment can be described thus: Inhibition of GAR transformylase from mammalian L1210 cells. The experiment is classed as cell-based.

Experiment [4] deals with Trifunctional purine biosynthetic protein adenosine-3 (Homo sapiens) (UniProt P22102). In words: Inhibition of GAR transformylase from mammalian Manca.
In experiment [5] the test system is L1210. In words: Evaluated for cell growth inhibition of L1210 cells in cultures. The note with it: Mus musculus. The experiment is classed as functional, cell-based.
Experiment [6] deals with L1210. In words: Influx characteristics toward L1210 cells was evaluated. The experiment is classed as functional, cell-based. The note with it: Mus musculus.
The test system of experiment [7] is L1210. In words: Efflux characteristics in the L1210 cells was evaluated. The experiment is classed as functional, Mus musculus.

Dihydrofolate reductase (Lactobacillus casei, UniProt P00381), sequence (P00381 whole entry): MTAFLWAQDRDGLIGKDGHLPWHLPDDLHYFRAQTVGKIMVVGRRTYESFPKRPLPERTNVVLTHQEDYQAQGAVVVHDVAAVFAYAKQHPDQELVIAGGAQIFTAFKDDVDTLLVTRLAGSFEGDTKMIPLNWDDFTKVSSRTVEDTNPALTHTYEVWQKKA
Trifunctional purine biosynthetic protein adenosine-3 (Homo sapiens), sequence (P22102 whole entry, looked up): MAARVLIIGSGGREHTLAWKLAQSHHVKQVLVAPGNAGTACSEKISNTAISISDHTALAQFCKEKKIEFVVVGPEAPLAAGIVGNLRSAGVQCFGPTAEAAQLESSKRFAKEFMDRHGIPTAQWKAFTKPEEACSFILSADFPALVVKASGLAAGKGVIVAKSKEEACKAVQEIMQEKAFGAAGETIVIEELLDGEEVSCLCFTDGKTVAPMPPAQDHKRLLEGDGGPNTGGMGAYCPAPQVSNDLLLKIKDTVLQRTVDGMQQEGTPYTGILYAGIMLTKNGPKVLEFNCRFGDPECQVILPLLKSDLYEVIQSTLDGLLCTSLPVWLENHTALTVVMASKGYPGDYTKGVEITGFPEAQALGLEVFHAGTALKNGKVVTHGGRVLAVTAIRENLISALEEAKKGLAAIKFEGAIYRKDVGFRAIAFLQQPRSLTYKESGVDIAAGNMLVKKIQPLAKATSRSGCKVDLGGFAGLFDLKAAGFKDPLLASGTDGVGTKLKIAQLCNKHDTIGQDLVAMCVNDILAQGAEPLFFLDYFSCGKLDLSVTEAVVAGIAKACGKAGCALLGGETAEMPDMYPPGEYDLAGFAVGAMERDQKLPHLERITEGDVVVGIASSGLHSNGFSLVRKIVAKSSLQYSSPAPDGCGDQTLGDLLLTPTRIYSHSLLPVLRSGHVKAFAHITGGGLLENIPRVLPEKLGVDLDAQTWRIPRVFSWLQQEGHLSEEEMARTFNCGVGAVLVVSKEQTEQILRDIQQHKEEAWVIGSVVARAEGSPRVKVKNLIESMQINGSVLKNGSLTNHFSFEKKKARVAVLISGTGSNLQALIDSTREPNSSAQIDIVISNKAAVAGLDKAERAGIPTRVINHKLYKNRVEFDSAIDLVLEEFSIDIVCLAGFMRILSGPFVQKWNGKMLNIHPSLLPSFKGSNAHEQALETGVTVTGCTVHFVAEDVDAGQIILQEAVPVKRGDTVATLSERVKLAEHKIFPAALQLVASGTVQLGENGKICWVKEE

For the compound `Cc1c(CCc2ccc(C(=O)NC(CCC(=O)O)C(=O)O)cc2)cnc2nc(N)[nH]c(=O)c12` (stereo not given), the IC50 was 16000 nM on Dihydrofolate reductase [1], 44000 nM at Thymidylate synthase, > 20000 nM in experiment [3] and > 20000 nM in experiment [4]. In addition, on Dihydrofolate reductase [2], the Ki was > 1 nM.

For the compound `Cc1c(CCc2ccc(C(=O)NC(CCC(=O)O)C(=O)O)cc2)cnc2nc(N)nc(O)c12` (stereo not given), half-maximal inhibition with L1210 [5] (IC50) required 36400 nM. Besides, the Km in the experiment on L1210 [6] was determined as 18.8 µM.

`Cc1c(CCc2ccc(C(=O)NC(CCC(=O)O)C(=O)O)cc2)cnc2nc(N)nc(N)c12` (stereo not given): the IC50 against Dihydrofolate reductase [1] is 23 nM; in the experiment on L1210 [5], 23.2 nM; against Thymidylate synthase it was 2900 nM. Moreover, the affinity at Dihydrofolate reductase [2] corresponds to a Ki of 0.0283 nM. Further, the k in the experiment on L1210 [7] is 0.5 min⁻¹. For the same compound, in the experiment on L1210 [6], the Km was 1.25 µM.

Consider `CCC1c2c(O)nc(N)nc2NCC1CCc1ccc(C(=O)NC(CCC(=O)O)C(=O)O)cc1` (racemic), for which the IC50 at Dihydrofolate reductase [1] was 19000 nM; in the experiment on L1210 [5], 57.2 nM; against Thymidylate synthase it was > 100000 nM; in experiment [3] it was 500 nM; in experiment [4] it was 500 nM. Further, at Dihydrofolate reductase [2], the Ki is > 1 nM. Besides, in the experiment on L1210 [6], the Km was 2.48 µM.

In the case of `CC1c2c(O)nc(N)nc2NCC1CCc1ccc(C(=O)NC(CCC(=O)O)C(=O)O)cc1` (racemic), the IC50 is > 100000 nM on Dihydrofolate reductase [1]; 490 nM in the experiment with L1210 [5]; > 100000 nM at Thymidylate synthase; 80000 nM in experiment [3]; 14000 nM in experiment [4]. In addition, at Dihydrofolate reductase [2], the Ki was > 1 nM. Besides, the Km in the experiment on L1210 [6] was 1.62 µM.

Compound `CN(Cc1cnc2nc(N)nc(N)c2n1)c1ccc(C(=O)N[C@@H](CCC(=O)O)C(=O)O)cc1` [METHOTREXATE] came in with a concentration for half-maximal inhibition (IC50) in the experiment on L1210 [5] of 2.1 nM. This compound also registered a k with L1210 [7] of 0.22 min⁻¹. In addition, the Km in the experiment on L1210 [6] was 3.95 µM.
